What all share (assay): growth of human tumour cells (NCI), 48 h
Test [1] deals with 786-0.
Test [2] concerns A498.
In test [3] the test system is COLO 205.
Test [4] has as its system EKVX.
The subject of test [5] is HOP-62.
Test [6] concerns HOP-92.
The test system of test [7] is Hs-578T.
For test [8], the system named is IGROV-1.
For test [9], the system named is K562.
For test [10], the system named is LOX IMVI.
The test system of test [11] is PC-3.
The test system of test [12] is SK-MEL-2.
In test [13] the test system is SK-OV-3.
Test [14] deals with SN12C.
Test [15] has as its system SNB-19.
The subject of test [16] is SW-620.
Test [17] has as its system T47D.
Test [18] has as its system Malme-3M.
In test [19] the test system is SK-MEL-28.
The test system of test [20] is HCC 2998.

Structures are written as SMILES.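 Method: 48-hour compound exposure of cells in 96-well plates, five concentrations, linear interpolation of endpoints. GI50 marks 50% less growth.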 Activity calls are given as the source filed them. No stated cut-off is given here; in the data, active = GI50 up to about 1.1 µM and inactive = higher. A value given as a limit tells only on which side of the number the result lay.

Regarding `Brc1ccc(/N=N/N2CCCCC2)cc1`, the GI50 was 44.3 µM (inactive) in test [1]; 57.5 µM (inactive) in test [2]; 69.3 µM (inactive) in test [3]; 40.1 µM (inactive) in test [4]; 67 µM (inactive) in [5]; 33.6 µM (inactive) in test [6]. The GI50 in test [7] was 65.5 µM (inactive); in test [8] it was 44.6 µM (inactive); in test [9], 27.4 µM (inactive); in [10] it was 35.7 µM (inactive); in test [11] it was 35.2 µM (inactive); in test [12] it was 20.3 µM (inactive). Also, the GI50 in [13] is > 100 µM (inactive); in test [14], 57.9 µM (inactive); in test [15], > 100 µM (inactive); in [16] it was 52.7 µM (inactive); in test [17], 42.3 µM (inactive).

For the molecule `COc1ccc2c(O)c1-c1c(OC)ccc(c1O)SSc1ccc(OC)c(c1O)-c1c(OC)ccc(c1O)SS2`, the GI50 in [1] is 40.6 µM (inactive); in [2], > 100 µM (inactive); in test [3], 19.9 µM (inactive); in [4], 7.87 µM (inactive); in test [5], > 100 µM (inactive); in test [6], 23 µM (inactive). Besides, the GI50 in test [7] is 54.8 µM (inactive); in test [8], 23 µM (inactive); in test [9], 5.2 µM (inactive); in test [10] it was 26.7 µM (inactive); in test [18], 51.2 µM (inactive); in test [11] it was 5.42 µM (inactive). The GI50 was 34.4 µM (inactive) in test [19]; > 100 µM (inactive) in test [12]; > 100 µM (inactive) in [13]; > 100 µM (inactive) in test [14]; 60.4 µM (inactive) in test [15]; 16 µM (inactive) in test [16]. Also, the GI50 in test [17] is 20.8 µM (inactive).

Take `COC1OC2COC(c3ccccc3)OC2C(O)C1OC(=S)c1ccccc1` (stereo not drawn): the GI50 in test [2] was 40.5 µM (inactive); in test [3] it was 16.7 µM (inactive); in [4] it was 19.5 µM (inactive); in test [5] it was 30.8 µM (inactive); in test [6], > 100 µM (inactive); in test [7], 62.1 µM (inactive). The GI50 in [8] was 32.4 µM (inactive); in test [9], 53.3 µM (inactive); in test [10], 0.244 µM (active); in test [18] it was 21.2 µM (inactive); in [11], 18.3 µM (inactive); in [19] it was 26.9 µM (inactive). For the same molecule, the GI50 was 53.3 µM (inactive) in test [12]; > 100 µM (inactive) in test [13]; 21.8 µM (inactive) in test [14]; > 100 µM (inactive) in [15]; 45.3 µM (inactive) in [16]; 14.9 µM (inactive) in test [17].

Turning to `CC1SC(=O)SC1C` (stereo not drawn), the GI50 in test [1], in test [3], in test [4], in [20], in test [5] and in test [7] was > 100 µM (inactive) in each case. Also, the GI50 in test [8], in test [9], in test [11], in test [19], in [13] and in [14] was > 100 µM (inactive) each time. For the same molecule, the GI50 in test [15], in test [16] and in test [17] was > 100 µM (inactive) throughout.

Take `CC1(C)CC(=O)c2c(nc3ccc4ccccc4c3c2-c2ccc(NC(=O)CCCC(=O)Nc3ccc(-c4c5c(nc6ccc7ccccc7c46)CC(C)(C)CC5=O)cc3)cc2)C1`: the GI50 in test [1], in test [2], in test [3], in [4], in test [5] and in test [6] was > 100 µM (inactive) in each case. Further, the GI50 is 60.3 µM (inactive) in [7]; > 100 µM (inactive) in test [8]; > 100 µM (inactive) in test [9]; > 100 µM (inactive) in test [10]; > 100 µM (inactive) in [11]; > 100 µM (inactive) in test [19]. The GI50 in [12], in test [13], in test [14], in test [15], in test [16] and in test [17] was > 100 µM (inactive) each time.

Regarding `Nc1nc(N)c2ncn(Cc3ccccc3CO)c2n1`, the GI50 in test [1], in test [2], in test [3], in [4], in test [5] and in [6] was > 100 µM (inactive) each time. The GI50 in test [7], in test [8], in [9], in test [10], in test [18] and in test [11] was > 100 µM (inactive) each time. In addition, the GI50 in test [19], in [12], in test [13], in test [14], in test [15] and in [16] was > 100 µM (inactive) each time. Also, the GI50 in [17] is > 100 µM (inactive).

With `COP(=O)(Cc1ccccc1)Cc1ccccc1`, the GI50 in test [1], in test [3], in test [4], in [20], in [5] and in [7] was > 100 µM (inactive) throughout. Also, the GI50 in test [8], in test [9], in test [10], in test [18], in [11] and in test [19] was > 100 µM (inactive) each time. Moreover, the GI50 in test [12] was > 100 µM (inactive); in test [13], > 100 µM (inactive); in test [14], > 100 µM (inactive); in [15], > 10 µM (inactive); in test [16], > 100 µM (inactive); in test [17], > 100 µM (inactive).

Regarding `CC(Cc1ccc(Cl)cc1Cl)NO` (stereo not drawn), the GI50 in test [1] was > 100 µM (inactive); in test [2] it was > 100 µM (inactive); in test [3] it was > 100 µM (inactive); in [4], 58.2 µM (inactive); in test [5], > 100 µM (inactive); in test [7], 80 µM (inactive). Besides, the GI50 in [8] is > 100 µM (inactive); in test [9], 83.9 µM (inactive); in test [10] it was > 100 µM (inactive); in [18], > 100 µM (inactive); in test [11], > 100 µM (inactive); in test [19] it was > 100 µM (inactive). Also, the GI50 was > 100 µM (inactive) in [12]; > 100 µM (inactive) in [13]; 92.7 µM (inactive) in test [14]; > 100 µM (inactive) in test [15]; > 100 µM (inactive) in test [16]; > 100 µM (inactive) in test [17].

In the case of `CC(C)(Br)C(=O)/C=C/c1ccccc1`, the GI50 in test [1] is 0.485 µM (active); in test [2] it was 18.7 µM (inactive); in test [3], 8.24 µM (inactive); in test [4] it was 7.62 µM (inactive); in [5], 4.58 µM (inactive); in test [6], 4.35 µM (inactive). Further, the GI50 in test [7] is 11.5 µM (inactive); in test [8] it was 0.581 µM (active); in [9], 1.55 µM (inactive); in test [10] it was 1.32 µM (inactive); in [18] it was 2.62 µM (inactive); in test [11], 7.69 µM (inactive). The GI50 in test [19] is 14.9 µM (inactive); in [12] it was 1.83 µM (inactive); in [13], 25.6 µM (inactive); in test [14], 6.21 µM (inactive); in test [15] it was 22 µM (inactive); in test [16], 2.39 µM (inactive). In addition, in [17], the GI50 was 2.47 µM (inactive).

Turning to `NCOC(=O)Cc1ccc(Br)cc1`, the GI50 in test [1], in [2], in test [3], in [4], in test [5] and in [6] was > 100 µM (inactive) throughout. The GI50 in [7], in test [8], in test [9], in test [10], in [18] and in test [11] was > 100 µM (inactive) in each case. Moreover, the GI50 in [19], in test [12], in test [13], in [14], in [15] and in test [16] was > 100 µM (inactive) in each case. The GI50 in [17] is > 100 µM (inactive).

For `COc1cc(Nc2cnc3cc(F)c(F)cc3n2)cc(OC)c1OC`, the GI50 in test [1] was > 100 µM (inactive); in [2] it was > 100 µM (inactive); in test [3], > 100 µM (inactive); in [4], > 100 µM (inactive); in test [5], 91.8 µM (inactive); in test [6], > 100 µM (inactive). Further, the GI50 in test [7] was 63.2 µM (inactive); in [8], > 100 µM (inactive); in test [10], 40 µM (inactive); in test [18], > 100 µM (inactive); in [11], > 100 µM (inactive); in [19], > 100 µM (inactive). In addition, the GI50 in test [12] is 84.3 µM (inactive); in [13], > 100 µM (inactive); in test [14], > 100 µM (inactive); in [15], > 100 µM (inactive); in test [16] it was > 100 µM (inactive); in test [17] it was > 100 µM (inactive).

For the origin of these results see ChEMBL document CHEMBL1201862, “PubChem BioAssay data set” (2004).
